Structures can show the parent of a compound that is named as a salt.
How the values were obtained:
Ret wt = molecular target: T1, Ret wt (Homo sapiens, UniProt P07949); test: HTRF kinase activity test, RET wild type; format: biochemical; settings: Table 3; read-out: RET Enzyme (wild type) IC50
T1 construct: purchased Invitrogen PV3082
Description: This test combined peptide substrates and a single proprietary monoclonal antibody with HTRF technology, which was a highly sensitive and stable technology for detecting molecular interactions of proteins. The enzyme phosphorylates the substrate, then the Eu-labeled antibody binds to the phosphorylated substrate, and streptavidin-XL665 binds to all substrates. The TR-FRET signal was generated by the HTRF principle. […] Based on this, the inhibitory effect was evaluated.
The other compounds were diluted 3-fold gradiently with DMSO from the 10 mM stock solution to a total of 10 concentrations respectively.
Adding 4 volumes of distilled water to 1 volume of enzyme buffer 5×; 5 mM MgCl2; 1 mM DTT.
b) centrifuging the compound plate for 1 minute at 1000 g.
c) sealing the test board.
f) adding 4 μl of 1× kinase buffer to each well of the test plate, centrifuging the sample plate at 1000 g for 30 seconds, and placing it at room temperature for 10 minutes.
g) preparing a solution of 5× TK-substrate-biotin ([…]) in kinase buffer and 5×ATP (50 μM) in kinase buffer respectively.
h) starting the reaction by adding 2 μl STK-substrate-biotin and 2 μl ATP (prepared in the step g).
i) centrifuging the sample plate for 30 seconds at 1000 g. Sealing the test board and placing it at room temperature for 30 minutes.
) centrifuging at 1000 g for 30 seconds and placing it at room temperature for 1 hour.
The inhibition rate % was calculated as follows:
Inhibition rate %=[1−(fluorescence signal value of test compound−fluorescence signal value of positive control)/(average ratio of negative control−average ratio of positive control)]*100%
Ratio: generated from the measured fluorescence signal value
The average ratio of the positive control is the average ratio of the positive control (200 nM AT13148) in the sample plate;
The average ratio of negative controls is the average ratio of negative controls (0.1% DMSO) in the sample plate.
GraphPad 6.0 was used to fit the logarithm of the % inhibition rate and the compound concentration into a nonlinear regression (dose response−variable slope) to calculate the IC50 value.

TT Cell = test: Cell inhibitory activity test (CCK8); format: cell-based; settings: Homo sapiens, TT, Table 3, 72 hours incubation
Description: Cell Inhibitory Activity Test
1. preparing 90 μl of cell suspension in a 96-well plate with 4000 cells/well. Pre-incubating the culture plate in an incubator for 24 hours (37° C., 5% CO2).
2. adding 10 μl of test compounds of different concentrations to each well of cells, and each compound has multiple wells.
3. incubating the culture plate in the incubator for 72 hours.
4. adding 10 μl of CCK8 solution to each well (be careful not to generate bubbles in the well, otherwise they would affect the reading of the OD value).
5. incubating the culture plate in the incubator for 1-2 hours.
6. measuring the absorbance at 450 nm with a microplate reader.
7. according to the compound concentration and absorbance value, GraphpadPrism software was used to calculate the IC50 of each compound.

T1 sequence (P07949 29-1114): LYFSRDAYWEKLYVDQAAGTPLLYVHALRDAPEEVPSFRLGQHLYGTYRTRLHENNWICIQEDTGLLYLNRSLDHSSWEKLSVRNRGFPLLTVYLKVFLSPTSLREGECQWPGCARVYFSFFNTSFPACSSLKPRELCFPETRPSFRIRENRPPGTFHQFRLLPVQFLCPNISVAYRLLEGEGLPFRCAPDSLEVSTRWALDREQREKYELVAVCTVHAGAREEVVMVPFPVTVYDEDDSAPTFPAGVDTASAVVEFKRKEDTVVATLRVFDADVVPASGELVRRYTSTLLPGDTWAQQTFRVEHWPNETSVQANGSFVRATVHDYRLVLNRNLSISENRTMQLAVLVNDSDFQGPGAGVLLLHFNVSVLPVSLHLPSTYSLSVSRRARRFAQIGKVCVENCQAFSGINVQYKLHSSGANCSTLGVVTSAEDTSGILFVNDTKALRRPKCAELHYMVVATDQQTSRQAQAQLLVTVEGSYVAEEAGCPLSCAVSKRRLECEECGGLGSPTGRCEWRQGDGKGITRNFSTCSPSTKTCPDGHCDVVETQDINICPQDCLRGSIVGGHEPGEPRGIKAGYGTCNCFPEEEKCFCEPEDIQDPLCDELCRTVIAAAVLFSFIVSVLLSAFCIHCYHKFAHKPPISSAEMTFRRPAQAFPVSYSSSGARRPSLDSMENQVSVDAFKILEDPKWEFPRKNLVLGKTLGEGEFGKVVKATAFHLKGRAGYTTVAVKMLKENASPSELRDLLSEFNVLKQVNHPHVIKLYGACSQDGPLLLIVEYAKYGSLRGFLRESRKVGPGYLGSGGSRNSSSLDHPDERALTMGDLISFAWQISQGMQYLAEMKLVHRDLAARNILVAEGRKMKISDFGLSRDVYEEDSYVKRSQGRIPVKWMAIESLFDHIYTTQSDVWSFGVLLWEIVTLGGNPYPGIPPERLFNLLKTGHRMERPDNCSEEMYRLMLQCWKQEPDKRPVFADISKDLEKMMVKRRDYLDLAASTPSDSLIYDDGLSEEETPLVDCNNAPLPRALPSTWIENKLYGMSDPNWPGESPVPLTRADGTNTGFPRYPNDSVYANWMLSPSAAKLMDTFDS

| IC50 (Ret wt) [nM] | SMILES | IC50 (TT Cell) [nM] |
| --- | --- | --- |
| 234 | CNc1nn2cc(-c3cnn(C)c3)cc(-c3ccc(N4CCN(Cc5ccc(OC)nc5)CC4)nc3)c2c1C#N [APS086, 2-methylamino-4-(6-(4-((6-methoxypyridin-3-yl)methyl)piperazin-1-yl)pyridin-3-yl)-6-(1-methyl-1H-pyrazol-4-yl)pyrazolo[1,5-a]pyridine-3-carbonitrile] |  |
| 78.3 | Cc1nn2cc(-c3cnn(C)c3)cc(-c3ccc(N4CCC(Cc5ccccn5)CC4)nc3)c2c1C#N [APS072, 2-methyl-6-(1-methyl-1H-pyrazol-4-yl)-4-(6-(4-(pyridin-2-yl-methyl)piperidin-1-yl)pyridine-3-yl)pyrazolo[1,5-a]pyridine-3-carbonitrile] |  |
|  | CN(C)c1ccc(CN2CCN(c3ccc(-c4cc(-c5cnn(C)c5)cn5nc(N)c(C#N)c45)cn3)CC2)cc1 [APS034, 2-amino-4-(6-(4-(4-(dimethylamino)benzyl)piperazin-1-yl)pyridin-3-yl)-6-(1-methyl-1H-pyrazole-4-yl)pyrazolo[1,5-a]pyridine-3-carbonitrile] | 32.8 |
|  | Cn1cc(-c2cc(-c3ccc(N4CCN(Cc5cncc(Cl)c5)CC4)nc3)c3c(C#N)c(N)nn3c2)cn1 [APS021] | 120 |
|  | COc1ccc(CN2C3CC2CN(c2cnc(-c4cc(OC[C@@H]5CNCCO5)cn5nc(F)c(C#N)c45)cn2)C3)cn1 [APS088, 2-fluoro-4-(5-(6-((6-methoxypyridin-3-yl)methyl)-3,6-diazabicyclo[3.1.1]heptan-3-yl)pyrazin-2-yl)-6-(((S)-morpholin-2-yl)methoxy)pyrazolo[1,5-a]pyridine-3-carbonitrile trifluoroacetate] | 265 |
|  | C[C@@H]1CN(c2ccc(-c3cc(-c4cnn(C)c4)cn4nc(N)c(C#N)c34)cn2)CCN1Cc1ccccn1 [APS073, (R)-2-amino-6-(1-methyl-1H-pyrazol-4-yl)-4-(6-(3-methyl-4-(pyridin-2-yl-methyl)piperazine-1-yl)pyridin-3-yl)pyrazolo[1,5-a]pyridine-3-carbonitrile] | 144 |
|  | CCN(CC)C(=O)N1CCN(c2ccc(-c3cc(-c4cnn(C)c4)cn4nc(N)c(C#N)c34)cn2)CC1 [APS016, 4-(5-(2-amino-3-cyano-6-(1-methyl-1H-pyrazol-4-yl)pyrazolo[1,5-a]pyridin-4-yl)pyridine-2-yl)-N,N-diethylpiperazine-1-carboxamide] | 31.1 |
|  | Cn1cc(-c2cc(-c3ccc(N4CCN(Cc5ccncc5)CC4)nc3)c3c(C#N)c(N)nn3c2)cn1 [APS078, 2-amino-6-(1-methyl-1H-pyrazol-4-yl)-4-(6-(4-(pyridin-4-yl-methyl)piperazin-1-yl)pyridine-3-yl)pyrazolo[1,5-a]pyridine-3-carbonitrile] | 57.1 |
|  | Cn1cc(-c2cc(-c3ccc(N4CCN(Cc5cnccn5)CC4)nc3)c3c(C#N)c(N)nn3c2)cn1 [APS064, 2-amino-6-(1-methyl-1H-pyrazol-4-yl)-4-(6-(4-(pyrazin-2-yl-methyl)piperazin-1-yl)pyridine-3-yl)pyrazolo[1,5-a]pyridine-3-carbonitrile] | 150 |
| 212 | COc1ccc(CN2CCN(c3ccc(-c4cc(-c5cnn(C)c5)cn5nc(O)c(C#N)c45)cn3)CC2)cn1 [APS083, 2-hydroxy-4-(6-(4-((6-methoxypyridin-3-yl)methyl)piperazin-1-yl)pyridin-3-yl)-6-(1-methyl-1H-pyrazol-4-yl)pyrazolo[1,5-a]pyridine-3-carbonitrile] |  |
|  | CN(C)c1ccc(CN2CCN(c3ccc(-c4cc(-c5cnn(C)c5)cn5nc(N)c(C#N)c45)cn3)CC2)cn1 [APS041, 2-amino-4-(6-(4-((6-(dimethylamino)pyridin-3-yl)methyl)piperazin-1-yl)pyridin-3-yl)-6-(1-methyl-1H-pyrazol-4-yl)pyrazolo[1,5-a]pyridine-3-carbonitrile] | 32.8 |
|  | Cn1cc(-c2cc(-c3ccc(N4CCN(Cc5ccc(F)c(F)c5)CC4)nc3)c3c(C#N)c(N)nn3c2)cn1 [APS079, 2-amino-4-(6-(4-(3,4-difluorobenzyl)piperazin-1-yl)pyridin-3-yl)-6-(1-methyl-1H-pyrazole-4-yl)pyrazolo[1,5-a]pyridine-3-carbonitrile] | 120 |
|  | Cn1cc(-c2cc(-c3ccc(N4CCN(Cc5ccccc5)CC4)nc3)c3c(C#N)c(N)nn3c2)cn1 [APS074, 2-amino-4-(6-(4-benzylpiperazin-1-yl)pyridin-3-yl)-6-(1-methyl-1H-pyrazol-4-yl)pyrazolo[1,5-a]pyridine-3-carbonitrile] | 25.2 |
|  | COc1ccc(CN2C3CC2CN(c2ccc(-c4cc(OCC(C)(C)OC)cn5nc(N)c(C#N)c45)cn2)C3)cn1 [APS110, 2-amino-6-(2-methoxy-2-methylpropoxy)-4-(6-(6-((6-methoxypyridin-3-yl)methyl)-3,6-diazabicyclo[3.1.1]heptan-3-yl)pyridin-3-yl)pyrazolo[1,5-a]pyridine-3-carbonitrile] | 198 |
|  | Cn1cc(-c2cc(-c3ccc(N4CCN(C(=O)c5c(F)cccc5F)CC4)nc3)c3c(C#N)c(N)nn3c2)cn1 [APS062, 2-amino-4-(6-(4-(2,6-difluorobenzoyl)piperazin-1-yl)pyridin-3-yl)-6-(1-methyl-1H-pyrazole-4-yl)pyrazolo[1,5-a]pyridine-3-carbonitrile] | 34.1 |
| 865 | COc1ccc(CN2CCN(c3ccc(-c4cc(-c5cnn(C)c5)cn5nc(NC(C)=O)c(C#N)c45)cn3)CC2)cn1 [APS085, N-(3-cyano-4-(6-(4-((6-methoxypyridin-3-yl)methyl)piperazin-1-yl)pyridin-3-yl)-6-(1-methyl-1H-pyrazol-4-yl)pyrazolo[1,5-a]pyridin-2-yl)acetamide] |  |
| 64.6 | Cc1nn2cc(-c3cnn(C)c3)cc(-c3ccc(N4CCN(C(=O)Cc5ccc(F)cn5)CC4)nc3)c2c1C#N [APS071, 2-methyl-4-(6-(4-(2-(5-fluoropyridin-2-yl)acetyl)piperazin-1-yl)pyridin-3-yl)-6-(1-methyl-1H-pyrazol-4-yl)pyrazolo[1,5-a]pyridine-3-carbonitrile] |  |
|  | Cn1cc(-c2cc(-c3ccc(N4CCN(Cc5ccc(F)cc5)CC4)nc3)c3c(C#N)c(N)nn3c2)cn1 [APS077, 2-amino-4-(6-(4-(4-fluorobenzyl)piperazin-1-yl)pyridin-3-yl)-6-(1-methyl-1H-pyrazol-4-yl) pyrazolo[1,5-a]pyridine-3-carbonitrile] | 58.3 |
|  | Cn1cc(-c2cc(-c3ccc(N4CCN(Cc5cccnc5)CC4)nc3)c3c(C#N)c(N)nn3c2)cn1 [APS075, 2-amino-6-(1-methyl-1H-pyrazol-4-yl)-4-(6-(4-(pyridin-3-yl-methyl)piperazin-1-yl)pyridine-3-yl)pyrazolo[1,5-a]pyridine-3-carbonitrile] | 122 |
|  | COc1ccc(CN2CCN(c3ccc(-c4cc(-c5cnn(C)c5)cn5nc(F)c(C#N)c45)cn3)CC2)cn1 [APS084, 2-fluoro-4-(6-(4-((6-methoxypyridin-3-yl)methyl)piperazin-1-yl)pyridin-3-yl)-6-(1-methyl-1H-pyrazol-4-yl)pyrazolo[1,5-a]pyridine-3-carbonitrile] | 342 |
|  | C[C@@H]1CN(Cc2ccccn2)CCN1c1ccc(-c2cc(-c3cnn(C)c3)cn3nc(N)c(C#N)c23)cn1 [APS076, (R)-2-amino-6-(1-methyl-1H-pyrazol-4-yl)-4-(6-(2-methyl-4-(pyridin-2-yl-methyl)piperazine-1-yl)pyridin-3-yl)pyrazolo[1,5-a]pyridine-3-carbonitrile] | 96.4 |
|  | COc1cccc(CN2CCN(c3ccc(-c4cc(-c5cnn(C)c5)cn5nc(N)c(C#N)c45)cn3)CC2)n1 [APS030, 2-amino-4-(6-(4-((6-methoxypyridin-2-yl)methyl)piperazin-1-yl)pyridin-3-yl)-6-(1-methyl-1H-pyrazol-4-yl)pyrazolo[1,5-a]pyridine-3-carbonitrile] | 57.6 |
| 18.9 | CCOc1cc(-c2ccc(N3CC4CC(C3)N4Cc3cncc(Cl)c3)nc2)c2c(C#N)c(N)nn2c1 [APS112, 2-amino-4-(6-(6-((5-chloropyridin-3-yl)methyl)-3,6-diazabicyclo[3.1.1]heptan-3-yl)pyridine-3-yl)-6-ethoxypyrazolo[1,5-a]pyridine-3-carbonitrile] |  |
